Data: ChEMBL document CHEMBL4602659, “β,β-Dimethylacrylshikonin Induces Apoptosis in Melanoma Cell Lines by NOXA Upregulation” (J Nat Prod, 2020)
Calls of active or inactive are those of the source. The rule behind the calls is not given here.

Experiments:
WM164 [1] = assay: Cytotoxicity against human WM164 cells harboring BRAF V600E mutant assessed as reduction in cell viability after 48 hrs by EZ4U reagent based spectrophotometric method; type: functional; conditions: WM164, 48 h
SBcl2 [2] = assay: Induction of apoptosis in human SBcl2 cells assessed as viable cells at IC50 concentration after 24 hrs by Annexin V/SYTOX Green based flow cytometric analysis (reference value: 73.08%); type: functional
[3] = Cytotoxicity against human A375-S2 cells assessed as reduction in cell viability after 48 hrs by MTT assay; type: functional, cell-based; conditions: A375-S2, 48 h
WM164 [4] = assay: Induction of apoptosis in human WM164 cells assessed as effect on BAX protein expression at IC50 concentration after 24 hrs by Western blot analysis; type: functional, cell-based
WM793 [5] = assay: Induction of apoptosis in human WM793 cells assessed as up regulation of NOXA protein expression at IC50 concentration after 24 hrs by Western blot analysis; type: functional, cell-based
WM164 [6] = assay: Induction of apoptosis in human WM164 cells assessed as viable cells at IC50 concentration after 24 hrs by Annexin V/SYTOX Green based flow cytometric analysis (reference value: 94.62%); type: functional
SBcl2 [7] = assay: Induction of apoptosis in human SBcl2 cells assessed as up regulation of NOXA protein expression at IC50 concentration after 24 hrs by Western blot analysis; type: functional, cell-based
WM793 [8] = assay: Induction of apoptosis in human WM793 cells assessed as late apoptotic cells at IC50 concentration after 24 hrs by Annexin V/SYTOX Green based flow cytometric analysis (reference value: 0.66%); type: functional
MUGMel1 [9] = assay: Induction of apoptosis in human MUGMel1 cells assessed as viable cells at IC50 concentration after 24 hrs by Annexin V/SYTOX Green based flow cytometric analysis (reference value: 95.13%); type: functional
MUGMel1 [10] = assay: Induction of apoptosis in human MUGMel1 cells assessed as effect on PUMA protein expression at IC50 concentration after 24 hrs by Western blot analysis; type: functional, cell-based
WM164 [11] = assay: Induction of apoptosis in human WM164 cells assessed as effect on BAX mRNA expression at IC50 concentration after 6 to 24 hrs by RT-qPCR analysis; type: functional, cell-based
MUGMel2 [12] = assay: Cytotoxicity against human MUGMel2 cells harboring NRAS pQ61K mutant assessed as reduction in cell viability after 72 hrs by EZ4U reagent based spectrophotometric method; type: functional; conditions: MUGMel2, 72 h
SBcl2 [13] = assay: Cytotoxicity against human SBcl2 cells harboring NRAS Q61I mutant assessed as reduction in cell viability after 72 hrs by EZ4U reagent based spectrophotometric method; type: functional; conditions: SBcl2, 72 h
SBcl2 [14] = assay: Cytotoxicity against human SBcl2 cells harboring NRAS Q61I mutant assessed as reduction in cell viability after 24 hrs by EZ4U reagent based spectrophotometric method; type: functional; conditions: SBcl2, 24 h
MUGMel1 [15] = assay: Induction of apoptosis in human MUGMel1 cells assessed as up regulation of PUMA at IC50 concentration after 6 to 24 hrs by RT-qPCR analysis; type: functional, cell-based
MUGMel2 [16] = assay: Induction of apoptosis in human MUGMel2 cells assessed as early apoptotic cells at IC50 concentration after 24 hrs by Annexin V/SYTOX Green based flow cytometric analysis (reference value: 3.31%); type: functional
WM793 [17] = assay: Induction of apoptosis in human WM793 cells assessed as early apoptotic cells at IC50 concentration after 6 hrs by Annexin V/SYTOX Green based flow cytometric analysis (reference value: 2.77%); type: functional
WM164 [18] = assay: Cytotoxicity against human WM164 cells harboring BRAF V600E mutant assessed as reduction in cell viability after 24 hrs by EZ4U reagent based spectrophotometric method; type: functional; conditions: WM164, 24 h
SBcl2 [19] = assay: Induction of apoptosis in human SBcl2 cells treated with scrambled si-RNA assessed as up regulation of NOXA protein expression at IC50 concentration after 24 hrs by Western blot analysis; type: functional, cell-based
WM164 [20] = assay: Induction of apoptosis in human WM164 cells treated with scrambled si-RNA assessed as caspase -activity at IC50 concentration after 24 hrs by Western blot analysis; type: functional, cell-based
WM793 [21] = assay: Induction of apoptosis in human WM793 cells assessed as effect on BAD mRNA expression at IC50 concentration after 6 to 24 hrs by RT-qPCR analysis; type: functional, cell-based
[22] = Toxicity in NU(NCr)-Foxn1 mouse xenografted with SBcl2 assessed as weight loss at 2 ug/g administered for three consecutive days with 1 day interval for four cycle; conditions: in vivo
SBcl2 [23] = assay: Induction of apoptosis in human SBcl2 cells assessed as effect on PUMA protein expression at IC50 concentration after 24 hrs by Western blot analysis; type: functional, cell-based
MUGMel1 [24] = assay: Induction of apoptosis in human MUGMel1 cells assessed as necrotic cells at IC50 concentration after 24 hrs by Annexin V/SYTOX Green based flow cytometric analysis (reference value: 0.42%); type: functional
MUGMel2 [25] = assay: Induction of apoptosis in human MUGMel2 cells assessed as effect on BAD mRNA expression at IC50 concentration after 6 to 24 hrs by RT-qPCR analysis; type: functional, cell-based
MUGMel1 [26] = assay: Induction of apoptosis in human MUGMel1 cells assessed as early apoptotic cells at IC50 concentration after 6 hrs by Annexin V/SYTOX Green based flow cytometric analysis (reference value: 2.55%); type: functional
WM793 [27] = assay: Induction of apoptosis in human WM793 cells assessed as up regulation of NOXA at IC50 concentration after 6 to 24 hrs by RT-qPCR analysis; type: functional, cell-based
WM164 [28] = assay: Induction of apoptosis in human WM164 cells assessed as early apoptotic cells at IC50 concentration after 6 hrs by Annexin V/SYTOX Green based flow cytometric analysis (reference value: 3.01%); type: functional
SBcl2 [29] = assay: Induction of apoptosis in human SBcl2 cells assessed as viable cells at IC50 concentration after 6 hrs by Annexin V/SYTOX Green based flow cytometric analysis (reference value: 80.68%); type: functional
MUGMel2 [30] = assay: Induction of apoptosis in human MUGMel2 cells assessed as viable cells at IC50 concentration after 24 hrs by Annexin V/SYTOX Green based flow cytometric analysis (reference value: 85.95%); type: functional
SBcl2 [31] = assay: Induction of apoptosis in human SBcl2 cells assessed as necrotic cells at IC50 concentration after 24 hrs by Annexin V/SYTOX Green based flow cytometric analysis (reference value: 0.21%); type: functional
WM793 [32] = assay: Induction of apoptosis in human WM793 cells assessed as late apoptotic cells at IC50 concentration after 6 hrs by Annexin V/SYTOX Green based flow cytometric analysis (reference value: 0.71%); type: functional
SBcl2 [33] = assay: Antitumour activity against human SBcl2 cells xenografted in NU(NCr)-Foxn1 mouse assessed as decrease in tumour size at 2 ug/g administered for three consecutive days with 1 day interval for four cycle; type: functional, cell-based
MUGMel1 [34] = assay: Induction of apoptosis in human MUGMel1 cells assessed as effect on BAD mRNA expression at IC50 concentration after 6 to 24 hrs by RT-qPCR analysis; type: functional, cell-based
SBcl2 [35] = assay: Induction of apoptosis in human SBcl2 cells assessed as effect on BAD mRNA expression at IC50 concentration after 6 to 24 hrs by RT-qPCR analysis; type: functional, cell-based

SMILES: CC(C)=CC[C@@H](OC(=O)C=C(C)C)C1=CC(=O)c2c(O)ccc(O)c2C1=O [DIMETHYLACRYLSHIKONIN]
- IC50 (WM164 [1]): 3 µM
- Activity (SBcl2 [2]): 8.43%
- IC50 [3]: 7.1 µM
- Activity (WM164 [4]): inactive
- Activity (WM793 [5]): inactive
- Activity (WM164 [6]): 75.03%
- Activity (SBcl2 [7]): Active
- Activity (WM793 [8]): 2.78%
- Activity (MUGMel1 [9]): 49.48%
- Activity (MUGMel1 [10]): inactive
- Activity (WM164 [11]): inactive
- IC50 (MUGMel2 [12]): 1.7 µM
- IC50 (SBcl2 [13]): 1.2 µM
- IC50 (SBcl2 [14]): 1.9 µM
- Activity (MUGMel1 [15]): Active
- Activity (MUGMel2 [16]): 10.92%
- Activity (WM793 [17]): 8.45%
- IC50 (WM164 [18]): 3.8 µM
- Activity (SBcl2 [19]): Active
- Activity (WM164 [20]): inactive
- Activity (WM793 [21]): inactive
- Activity [22]: Non-Toxic
- Activity (SBcl2 [23]): inactive
- Activity (MUGMel1 [24]): 0.15%
- Activity (MUGMel2 [25]): inactive
- Activity (MUGMel1 [26]): 3.51%
- Activity (WM793 [27]): inactive
- Activity (WM164 [28]): 2.47%
- Activity (SBcl2 [29]): 21.29%
- Activity (MUGMel2 [30]): 45.04%
- Activity (SBcl2 [31]): 0%
- Activity (WM793 [32]): 5.72%
- Activity (SBcl2 [33]): inactive
- Activity (MUGMel1 [34]): inactive
- Activity (SBcl2 [35]): inactive
